Results on 2 compounds are retold here after patent US8067390B2, “Therapeutic targeting of interleukins using siRNA in neutral liposomes” (The Board of Regents of the University of Texas System, priority 2007, dated 2011).

Several values for one entry are separate records, joined by “and”; a condition that tells them apart may be missing. Equal entries are not always repeated. Entries after “also recorded” stand apart in the source; their conditions may differ. Some results are limits rather than exact numbers.

The test system of series [1] is HeyA8. Put plainly: Tumor cell proliferation (PCNA) in orthotopic HeyA8 tumors. The class given is in vivo, mice. Particulars: compared to controls. The protocol:
(§1) Analysis of tumor microvessel density (CD31) and proliferation (PCNA). Microvessel density analysis was performed by immunostaining for CD31 antigen in orthotopic tumors as previously described (Halder et al., 2006). Briefly, frozen slides were rehydrated in acetone, blocked for endogenous peroxidases with H2O2 in methanol, and incubated overnight at 4° C. with rat anti-mouse m-CD31 antibodies (1:800; BD Bioscience, Pharmingen, San Jose, Calif.). The following day, slides were incubated with appropriate secondary antibody and detected with DAB substrate. Proliferation was assessed by staining for PCNA on paraffin slides as previously reported (Halder et al., 2006). After deparaffinization and rehydration, slides were heated in microwave at 98° C. for 10 min in 0.1M citrate buffer (pH 6.0) for antigen retrieval, blocked for endogenous peroxidases, and then incubated with fragment blocker (1:10; Jackson Immunoresearch Lab., West Grove, Pa.) overnight at 4° C. to reduce murine antigen interference. Following day, slides were incubated with primary antibody (1:50; anti-PCNA, PC-10, mouse IgG, Dako, Carpinteria, Calif.) for 4 hours at RT, washed with PBS, and re-incubated for 1 hour at RT with appropriate secondary. Detection was performed with DAB substrate. Quantification of MVD and proliferation was performed as previously described (Halder et al., 2006).

Series [2] has as its system HeyA8. Put plainly: Tumor microvessel density (CD31) in orthotopic HeyA8 tumors. Particulars: CD31 staining. The class given is in vivo, mice. The protocol:
as §1

Series [3] concerns HeyA8. The experiment in a line: IL-8 siRNA therapy in orthotopic murine ovarian cancer model, HeyA8. The format is in vivo, mice. From the text:
(§2) Cell lines and cultures. The derivation and source of the epithelial ovarian cancer cell lines HeyA8 and SKOV3ip1 have been previously described (Halder et al., 2006; Landen et al., 2005). The taxane-resistant cell line, SKOV3ip2.TR (a gift from Dr. Isaiah J. Fidler, M.D. Anderson Cancer Center [MDACC], Houston, Tex.), was derived from the SKOV3ip1 cells following serial passages in media containing paclitaxel. All cell lines were maintained and propagated in RPMI-1640 media supplemented with 15% fetal bovine serum and 0.1% gentamicin sulfate (Gemini Bioproducts, Calabasas, Calif.). SKOV3ip2.TR media also contained 100-150 ng/ml paclitaxel. All experiments were performed at 60-80% confluency and cell lines routinely tested for Mycoplasma. For in vivo experiments, cells were trypsinized, centrifuged at 1000 rpm at 4° C. for 7 minutes, washed twice with HBSS, and resuspended at a concentration of 1.25×10^6 cells/ml (HeyA8) and 5×10^6 cells/ml (SKOV3ip1 and SKOV3ip2.TR).
(§3) Preparation of liposomal siRNA for in vivo delivery. For all in vivo experiments, siRNA constructs were incorporated into neutral liposomes (DOPC: 1,2-dioleoyl-sn-glycero-3-phosphatidylcholine), lyophilized, and stored at −20° C. (Landen et al., 2005). Prior to in vivo delivery, siRNA-DOPC preparations were resuspended with PBS to appropriate concentrations.
(§4) IL-8 siRNA therapy in an orthotopic murine ovarian cancer model. Female athymic nude mice were purchased from the National Cancer Institute-Frederick Cancer Research and Development Center (Frederick, Md.) and housed in specific pathogen-free conditions. […]
(§5) Development and characterization of the orthotopic murine model of advanced ovarian cancer used in these experiments has been previously described (Halder et al., 2006; Landen et al., 2005). […] Mice were monitored daily for signs of adverse effects and sacrificed when moribund. Tumor weights, number of tumor nodules, pattern of disease spread, presence and amount of ascites, and mouse weights were recorded at necropsy. […]

In series [4] the test system is SKOV3ip1. The experiment in a line: Tumor microvessel density (CD31) in orthotopic SKOV3ip1 tumors. The format is in vivo, mice. Particulars: CD31 staining. The procedure: as §1
For series [5], the system named is SKOV3ip1. Put plainly: IL-8 siRNA therapy in orthotopic murine ovarian cancer model, SKOV3ip1. The class given is in vivo, mice.
Excerpt: as §2, §3, §4, §5

Series [6] deals with SKOV3ip1. The experiment in a line: Tumor cell proliferation (PCNA) in orthotopic SKOV3ip1 tumors. The class given is in vivo, mice. Particulars: compared to controls. The protocol: as §1
In the next series the test system is SKOV3ip2.TR. Put plainly: IL-8 siRNA therapy in orthotopic murine ovarian cancer model, taxane-resistant SKOV3ip2.TR. The class given is in vivo, mice.
Excerpt: as §2, §3, §4, §5

In the next series the test system is HeyA8 cell line. Put plainly: Tumor cell invasion in vitro. The format is cell-based, human.
In another series the test system is MMP2. The experiment in a line: MMP2 expression after IL-8 siRNA transfection in vitro. The class given is cell-based, human. Particulars: HeyA8 and SKOV3ip1 cell lines; following siRNA transfection in vitro.
The subject of a further series is IL-8. The experiment in a line: Secreted IL-8 protein by ELISA after in vitro siRNA transfection. Particulars: for IL-8 protein levels reduced by: ELISA 36-48 hours after siRNA transfection. The class given is cell-based, human.
Excerpt: as §2
SiRNA and in vitro transfections. IL-8 targeting siRNA purchased from Dharmacon (Lafayette, Colo.) was used to silence IL-8 expression in ovarian cancer cell lines (target sequence: GCCAAGGAGUGCUAAAGAA—SEQ ID NO:1). The sequence of the sense strand of the IL-8 siRNA is […] (SEQ ID NO:39) and the sequence of the antisense strand of the IL-8 siRNA is […] (SEQ ID NO:40). […] For in vitro transfections, 2×10^5 cells/well were plated into 6-well plates. The following day, cells were washed with PBS and incubated with 5 μg siRNA (IL-8 or control) with 30 μl of RNAiFect transfection reagent (Qiagen, Valencia, Calif.) in serum-containing media overnight at 37° C. Media was changed 24 hours after transfection and replaced with appropriate media.
mRNA and protein IL-8 expression analysis for in vitro transfections. The expression of IL-8 in vitro was determined with RT-PCR and ELISA 36-48 hours after siRNA transfection. For RT-PCR analysis, RNA was isolated according to manufacturer's protocol (Ambion RNAqueous Kit, Ambion, Austin, Tex.), transcribed into cDNA, and amplified: 94° C.×2 min, 94° C.×30 sec, 61° C.×30 sec, 72° C. 2 min, repeated for 21 cycles, and 72° C.×7 min (Primers: IL-8 sense […] (SEQ ID NO:48); IL-8 anti-sense […] (SEQ ID NO:49); GAPDH sense GAGCCACATCGCTCAGAC (SEQ ID NO:50); GAPDH anti-sense CTTCTCATGGTTCACACCC (SEQ ID NO:51)). For ELISA, cells were treated with serum-free media day prior to analysis and IL-8 protein levels were quantified using a commercially available ELISA kit (R&D Systems, Minneapolis, Minn.). All experiments were performed in duplicate and control siRNA was used for comparison.

Another series relates to IL-8 mRNA. The experiment in a line: IL-8 mRNA expression by RT-PCR after in vitro siRNA transfection. The format is cell-based, human. Particulars: RT-PCR 36-48 hours after siRNA transfection, compared to control siRNA.
Excerpt: as §2
SiRNA and in vitro transfections. […]
mRNA and protein IL-8 expression analysis for in vitro transfections. The expression of IL-8 in vitro was determined with RT-PCR and ELISA 36-48 hours after siRNA transfection. […] For ELISA, cells were treated with serum-free media day prior to analysis and IL-8 protein levels were quantified using a commercially available ELISA kit (R&D Systems, Minneapolis, Minn.). […]

In a further series the test system is MMP9. Put plainly: MMP9 expression after IL-8 siRNA transfection in vitro. The format is cell-based, human. Particulars: HeyA8 and SKOV3ip1 cell lines; following siRNA transfection in vitro.
Setting [7] is: HeyA8 cells, media collected at various time points.

Regarding `CC(=O)O[C@@]12CO[C@@H]1C[C@H](O)[C@@]1(C)C(=O)[C@H](O)C3=C(C)[C@@H](OC(=O)[C@H](O)[C@@H](NC(=O)OC(C)(C)C)c4ccccc4)C[C@@](O)([C@@H](OC(=O)c4ccccc4)[C@H]21)C3(C)C` [docetaxel], the “tumor cell proliferation, PCNA staining (in words)” value in the series on HeyA8 [1] and with SKOV3ip1 [6] was “effective in reducing proliferation; also recorded: decreased tumor cell proliferation” in each case. Further, the “effect on MVD / tumor angiogenesis (in words)” value in the series with HeyA8 [2] and with SKOV3ip1 [4] was “Minimal effects” throughout. For the same compound, the “tumor burden, average number of tumor nodules (in words)” value in the series with HeyA8 [3] (compared to controls) and in the series on SKOV3ip1 [5] (compared to controls) was “reduced tumor burden” throughout. The “tumor growth reduction (tumor weight)” value in the series on SKOV3ip2.TR (SKOV3ip2.TR taxane-resistant, compared to controls, docetaxel 35 μg) is reported as 11%.

Consider “IL-8 siRNA: IL-8 targeting siRNA from Dharmacon; sense GCCAAGGAGUGCUAAAGAAUU (SEQ ID NO:39), antisense UUCUUUAGCACUCCUUGGCUU (SEQ ID NO:40) (incorporated into neutral DOPC liposomes, further chemistry not given here)”, for which the “tumor cell invasion in vitro” value in the series on HeyA8 cell line was “decreased tumor cell invasion”. The MMP2 expression entry with MMP2 was “decreased”. The results for the “No. nodules (mean ± SE)” value with HeyA8 [3], in the series with SKOV3ip1 [5] and with SKOV3ip2.TR (SKOV3ip2.TR) were 3.4 ± 0.8, 21.0 ± 7.3 and 21.9 ± 3.4, respectively. Also, the “Tumor incidence (%)” value was 100% with HeyA8 [3], 70% in the series on SKOV3ip1 [5] and 90% in the series with SKOV3ip2.TR (SKOV3ip2.TR). Further, the “IL-8 protein levels reduced by” value in the series with IL-8 (HeyA8) was 79% and 80%; in the series on IL-8 (SKOV3ip1), 81% and 80%. Also, the “IL-8 returning to baseline, time after transfection” value in the series on IL-8 (setting [7]) is no more than 96 h. Further, in the series on IL-8 (setting [7]), the “Maximum down regulation of IL-8, time after transfection” value was found to be 48 h. Also, the “IL-8 mRNA expression” value with IL-8 mRNA (HeyA8) and with IL-8 mRNA (SKOV3ip1) was “significantly reduced; also recorded: significantly decreased” throughout. Further, the MMP9 expression entry with MMP9 was “decreased”.
